This is an account of results in EP3372592A1, “SOLID FORMS OF LESINURAD AMINE SALTS” (Zentiva, k.s., priority 2017, dated 2018).

A short description of data set [1]: Determining the dissolution rate using the true dissolution method (Sirius inForm, pressed disks). Format: physicochemical. The note with it: for dissolution rate: true dissolution disks d = 3 mm, 40 ml acetate-phosphate buffer pH 6.8, 100 rpm, UV/Vis; for times more soluble than crystalline form 2 of lesinurad free acid: ratio of dissolution rates measured under identical conditions. The method, then: The dissolution rate was measured using a Sirius inForm dissolution device. Disks for true dissolution with the surface area available for dissolution of 0.071 cm^2 (d = 0.3 cm) were prepared using a Specac press. The pressing time was 2x2 minutes at the pressing pressure of 100 kg. The dissolution was carried out in 40 ml of a solution at pH 6.8 (38 ml of 150mM NaCl + 2 ml of 150mM NaCl, 100mM CH3COONa, 100mM NaH2PO4), at the constant speed of 100 rpm. Samples were drawn at 5-second intervals and the concentration of dissolved lesinurad was determined by means of an integrated UV/Vis spectrophotometric probe in the wavelength range of 230-400 nm. Disks for measuring true dissolution (d = 3 mm) were produced from the prepared solid forms of lesinurad, i.e. free acid form 2 (reference form), tromethamine salt form I and diethylamine salt, and solid form of lesinurad with urea (form I), with the use of a press. The dissolution was carried out in 40 ml of an acetate-phosphate buffer at pH 6,8 (150mM NaCl, 5mM CH3COONa, 5mM NaH2PO4), at the constant stirring speed of 100 rpm. Samples were drawn at 5-second intervals and the concentration of dissolved lesinurad was determined by means of a UV/Vis spectrophotometer.

Data set [2] can be described thus: Chemical and polymorphic stability test of the crystalline form. It is filed as physicochemical. How it is done:
The prepared crystalline form I was subjected to tests from the point of view of chemical and polymorphic stability. […] The same results were also obtained after 3 days at 80°C.

`O=C(O)CSc1nnc(Br)n1-c1ccc(C2CC2)c2ccccc12` [lesinurad free acid (form 2), 2-(5-bromo-4-(1-cyclopropylnaphtalen-4-yl)-4H-1,2,4-triazol-3-ylthio)acetic acid, reference compound]: the dissolution rate in data set [1] and in data set [1] (listed as crystalline form 2 of lesinurad free acid) was 0.42 mg/min/cm^2 each time.

Turning to `O=C(O)CSc1nnc(Br)n1-c1ccc(C2CC2)c2ccccc12` [lesinurad with diethylamine], the “times more soluble than crystalline form 2 of lesinurad free acid” value in data set [1] (listed as salt with diethylamine) was around 50 times. Further, the dissolution rate in data set [1] and in data set [1] (listed as lesinurad with dimethylamine) was 21.58 mg/min/cm^2 throughout.

Consider `O=C(O)CSc1nnc(Br)n1-c1ccc(C2CC2)c2ccccc12` [lesinurad with tromethamine (form I)], for which the figures for the “chemical and polymorphic stability” value in data set [2] (after 3 months at 40°C / 75% humidity) and in data set [2] (after 3 days at 80°C) were “did not show any signs of chemical degradation or transition to a different polymorphic form” and “same results”, respectively. Besides, in data set [1] (listed as solid form of lesinurad with tromethamine), the “times more soluble than crystalline form 2 of lesinurad free acid” value is given as “about 17 times”. Further, the dissolution rate in data set [1] and in data set [1] (listed as lesinurad with tromethamine) was 7.44 mg/min/cm^2 each time.
